Legend:
Type in all cases: in vivo
rapeseed = experiment: Test Example 5: effect on crop by foliage application, plastic box (symbol g); conditions: 320 g/ha, 3 weeks after application
Method in brief: (§1)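 Crop and weed seeds sown in spots in sterilized diluvial soil in plastic boxes and covered with about 1.5 cm soil. Plants raised in a greenhouse at 25° C. to 30° C. for foliar application.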

Avena fatua = experiment: Test Example 5: herbicidal effect by foliage application, plastic box (symbol I); conditions: 320 g/ha, 3 weeks after application
Method in brief: (§2)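 Visual herbicidal score, taken three weeks post-application, of seedlings sprayed on the foliage with water-diluted emulsion at a predetermined amount; plants were 14 days old, greenhouse-raised at 25° C. to 30° C.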

wheat [1] = experiment: Test Example 4: effect on crop by soil treatment (symbol e); conditions: for e: wheat, effect on crop grade: application herbicide amount 320 g/ha; for e: wheat, effect grade on crop: 320 g/ha
Method in brief: (§3)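 Crop seeds, among them rice, wheat, beet and rapeseed, were sown in sterilized diluvial soil and covered with about 1.5 cm of soil. Boxes were kept in a greenhouse at 25° C. to 30° C. for plant growth.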

Monochoria vaginalis [2] = experiment: Test Example 2: herbicidal activity, application during weed generation in submerged conditions (symbol C); conditions: Table 23; application herbicide amount 320 g/ha; grade 0-5 by criteria of Test Example 1
Method in brief: (§4)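 Seeds sown in flooded alluvial soil (4 cm water) were grown in a 25-30° C greenhouse. At the one- to two-leaf stage, diluted emulsion of compound was applied to the water surface at a predetermined rate. Effect was scored 3 weeks later.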

Lolium multiflorum Lam. = experiment: Test Example 4: herbicidal effect by soil treatment (symbol K)
Method in brief: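 Seeds were sown in sterilized diluvial soil, covered with about 1.5 cm of soil, and the soil surface was sprayed with a water-diluted emulsion of the compound at a predetermined rate. Plants grew in a greenhouse at 25° C. to 30° C.; effects were scored visually 3 weeks after application.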

soybean = experiment: Test Example 4: effect on crop by soil treatment (symbol d); conditions: for d: soybean, effect on crop grade: application herbicide amount 320 g/ha; for d: soybean, effect grade on crop: 320 g/ha
Method in brief: as §3

[3] = tested on: Echinochloa oryzacola Vasing.; experiment: Test Example 2: herbicidal activity, application during weed generation in submerged conditions (symbol A); conditions: Table 23; application herbicide amount 320 g/ha; grade 0-5 by criteria of Test Example 1
Method in brief: as §4

wheat [4] = experiment: Test Example 5: effect on crop by foliage application, plastic box (symbol e); conditions: 320 g/ha, 3 weeks after application
Method in brief: as §1

[5] = tested on: directly sowed rice plant; experiment: Test Example 3: effect on crop by foliage application, Wagner pot (symbol b); conditions: application herbicide amount 320 g/ha
Method in brief: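 Wagner pot (1/10000 are), alluvial soil, submerged 0.1–0.5 cm; sown E. crus-galli var. crus-galli, L. chinensis, C. difformis, rice; greenhouse 25–30 °C.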

beet = experiment: Test Example 4: effect on crop by soil treatment (symbol f); conditions: for f: beet, effect on crop grade: application herbicide amount 320 g/ha; for f: beet, effect grade on crop: 320 g/ha
Method in brief: as §3

Monochoria vaginalis [6] = experiment: Test Example 1: herbicidal activity, application before weed generation in submerged conditions (symbol C); conditions: application herbicide amount 320 g/ha
Method in brief: (§5)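 Compound emulsion was diluted to a set herbicide amount and applied to the water surface on the sowing day, into submerged (4 cm) alluvial-soil pots sown with mixed weed seeds and transplanted 2.5-leaf rice. Pots were held in a 25–30 °C greenhouse, and weeds were scored 0–5 by herbicidal ratio after 3 weeks.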

Scirpus juncoides = experiment: Test Example 1: herbicidal activity, application before weed generation in submerged conditions (symbol B); conditions: application herbicide amount 320 g/ha
Method in brief: as §5

Amaranthus retroflexus = experiment: Test Example 5: herbicidal effect by foliage application, plastic box (symbol N); conditions: 320 g/ha, 3 weeks after application
Method in brief: as §2

Veronica persica = experiment: Test Example 5: herbicidal effect by foliage application, plastic box (symbol R); conditions: 320 g/ha, 3 weeks after application
Method in brief: as §2

[7] = application herbicide amount 320 g/ha

## Cc1cc(C)c(C2=C(O)CC(CC(=O)c3ccc(F)cc3)C2=O)c(C)c1 (stereo not shown) [2-032]
rapeseed
  g: rapeseed, effect on crop grade: 4 (Herbicidal ratio of 70% or higher and lower than 90%)
Avena fatua
  I: Avena fatua, herbicidal effect grade: 3 (Herbicidal ratio of 40% or higher and lower than 70%)
Wheat [1]
  e: wheat, effect on crop grade: 0 (Herbicidal ratio of 5% or lower (almost no effect))
Monochoria vaginalis [2]
  Herbicidal effect grade, C: Monochoria vaginalis: 0 (Herbicidal ratio of 5% or lower (almost no effect))
Lolium multiflorum Lam.; [7]
  K: Lolium multiflorum Lam., herbicidal effect grade: 5 (Herbicidal ratio of 90% or more (almost completely withered))
soybean
  d: soybean, effect on crop grade: 0 (Herbicidal ratio of 5% or lower (almost no effect))
[3]
  Herbicidal effect grade, A: Echinochloa oryzacola Vasing.: 4 (Herbicidal ratio of 70% or higher and lower than 90%)
Wheat [4]
  e: wheat, effect on crop grade: 1 (Herbicidal ratio of 5% or higher and lower than 20%)
[5]
  effect on crop b (directly sowed rice plant), grade 0-5: 5 (Herbicidal ratio of 90% or more (almost completely withered))
beet
  f: beet, effect on crop grade: 0 (Herbicidal ratio of 5% or lower (almost no effect))
Monochoria vaginalis [6]
  Herbicidal effect grade, C: Monochoria vaginalis: 1 (Herbicidal ratio of 5% or higher and lower than 20%)
Scirpus juncoides
  Herbicidal effect grade, B: Scirpus juncoides: 4 (Herbicidal ratio of 70% or higher and lower than 90%)
Amaranthus retroflexus
  N: Amaranthus retroflexus, herbicidal effect grade: 0 (Herbicidal ratio of 5% or lower (almost no effect))
Veronica persica
  R: Veronica persica, herbicidal effect grade: 0 (Herbicidal ratio of 5% or lower (almost no effect))

## CON=C(C)CC1CC(OC(=O)OCc2ccccc2)=C(c2c(C)cc(C)cc2C)C1=O (stereo not shown) [1-145]
rapeseed
  g: rapeseed, effect on crop (criteria 0-5): 4 (Herbicidal ratio of 70% or higher and lower than 90%)
Avena fatua
  I: Avena fatua, herbicidal effect (criteria 0-5): 5 (Herbicidal ratio of 90% or more (almost completely withered))
Wheat [1]
  e: wheat, effect grade on crop: 5 (Herbicidal ratio of 90% or more (almost completely withered))
Monochoria vaginalis [2]
  Herbicidal effect grade, C: Monochoria vaginalis: 3 (Herbicidal ratio of 40% or higher and lower than 70%)
Lolium multiflorum Lam.; 320 g/ha
  K: Lolium multiflorum Lam., herbicidal effect grade: 5 (Herbicidal ratio of 90% or more (almost completely withered))
soybean
  d: soybean, effect grade on crop: 0 (Herbicidal ratio of 5% or lower (almost no effect))
[3]
  Herbicidal effect grade, A: Echinochloa oryzacola Vasing.: 5 (Herbicidal ratio of 90% or more (almost completely withered))
Wheat [4]
  e: wheat, effect on crop (criteria 0-5): 5 (Herbicidal ratio of 90% or more (almost completely withered))
[5]
  effect on crop b (directly sowed rice plant), grade 0-5: 5 (Herbicidal ratio of 90% or more (almost completely withered))
beet
  f: beet, effect grade on crop: 0 (Herbicidal ratio of 5% or lower (almost no effect))
Monochoria vaginalis [6]
  Herbicidal effect grade, C: Monochoria vaginalis: 1 (Herbicidal ratio of 5% or higher and lower than 20%)
Scirpus juncoides
  Herbicidal effect grade, B: Scirpus juncoides: 5 (Herbicidal ratio of 90% or more (almost completely withered))
Amaranthus retroflexus
  N: Amaranthus retroflexus, herbicidal effect (criteria 0-5): 0 (Herbicidal ratio of 5% or lower (almost no effect))
Veronica persica
  R: Veronica persica, herbicidal effect (criteria 0-5): 3 (Herbicidal ratio of 40% or higher and lower than 70%)

## C=CCN(CC=C)C(=O)OC1=C(c2c(C)cc(C)cc2C)C(=O)C(CC(C)=NOC)C1 (stereo not shown) [1-153]
rapeseed
  g: rapeseed, effect on crop (criteria 0-5): 4 (Herbicidal ratio of 70% or higher and lower than 90%)
Avena fatua
  I: Avena fatua, herbicidal effect (criteria 0-5): 5 (Herbicidal ratio of 90% or more (almost completely withered))
Wheat [1]
  e: wheat, effect grade on crop: 2 (Herbicidal ratio of 20% or higher and lower than 40%)
Monochoria vaginalis [2]
  Herbicidal effect grade, C: Monochoria vaginalis: 0 (Herbicidal ratio of 5% or lower (almost no effect))
Lolium multiflorum Lam.; 320 g/ha
  K: Lolium multiflorum Lam., herbicidal effect grade: 4 (Herbicidal ratio of 70% or higher and lower than 90%)
soybean
  d: soybean, effect grade on crop: 0 (Herbicidal ratio of 5% or lower (almost no effect))
[3]
  Herbicidal effect grade, A: Echinochloa oryzacola Vasing.: 4 (Herbicidal ratio of 70% or higher and lower than 90%)
Wheat [4]
  e: wheat, effect on crop (criteria 0-5): 5 (Herbicidal ratio of 90% or more (almost completely withered))
[5]
  effect on crop b (directly sowed rice plant), grade 0-5: 5 (Herbicidal ratio of 90% or more (almost completely withered))
beet
  f: beet, effect grade on crop: 0 (Herbicidal ratio of 5% or lower (almost no effect))
Monochoria vaginalis [6]
  Herbicidal effect grade, C: Monochoria vaginalis: 0 (Herbicidal ratio of 5% or lower (almost no effect))
Scirpus juncoides
  Herbicidal effect grade, B: Scirpus juncoides: 3 (Herbicidal ratio of 40% or higher and lower than 70%)
Amaranthus retroflexus
  N: Amaranthus retroflexus, herbicidal effect (criteria 0-5): 4 (Herbicidal ratio of 70% or higher and lower than 90%)
Veronica persica
  R: Veronica persica, herbicidal effect (criteria 0-5): 0 (Herbicidal ratio of 5% or lower (almost no effect))

## CCc1cc(Br)cc(C)c1C1=C(O)CC(C(C(=O)OC)C(C)=NOC)C1=O (stereo not shown) [6-002]
rapeseed
  g: rapeseed, effect on crop grade: 0 (Herbicidal ratio of 5% or lower (almost no effect))
Avena fatua
  I: Avena fatua, herbicidal effect grade: 5 (Herbicidal ratio of 90% or more (almost completely withered))
Wheat [1]
  e: wheat, effect on crop grade: 0 (Herbicidal ratio of 5% or lower (almost no effect))
Monochoria vaginalis [2]
  Herbicidal effect grade, C: Monochoria vaginalis: 0 (Herbicidal ratio of 5% or lower (almost no effect))
Lolium multiflorum Lam.; [7]
  K: Lolium multiflorum Lam., herbicidal effect grade: 5 (Herbicidal ratio of 90% or more (almost completely withered))
soybean
  d: soybean, effect on crop grade: 0 (Herbicidal ratio of 5% or lower (almost no effect))
[3]
  Herbicidal effect grade, A: Echinochloa oryzacola Vasing.: 0 (Herbicidal ratio of 5% or lower (almost no effect))
Wheat [4]
  e: wheat, effect on crop grade: 0 (Herbicidal ratio of 5% or lower (almost no effect))
[5]
  effect on crop b (directly sowed rice plant), grade 0-5: 5 (Herbicidal ratio of 90% or more (almost completely withered))
beet
  f: beet, effect on crop grade: 0 (Herbicidal ratio of 5% or lower (almost no effect))
Monochoria vaginalis [6]
  Herbicidal effect grade, C: Monochoria vaginalis: 0 (Herbicidal ratio of 5% or lower (almost no effect))
Scirpus juncoides
  Herbicidal effect grade, B: Scirpus juncoides: 0 (Herbicidal ratio of 5% or lower (almost no effect))
Amaranthus retroflexus
  N: Amaranthus retroflexus, herbicidal effect grade: 0 (Herbicidal ratio of 5% or lower (almost no effect))
Veronica persica
  R: Veronica persica, herbicidal effect grade: 0 (Herbicidal ratio of 5% or lower (almost no effect))

## COC(=O)C(C(C)=O)C1CC(O)=C(c2c(C)cc(C)cc2C)C1=O (stereo not shown) [2-003]
rapeseed
  g: rapeseed, effect on crop grade: 3 (Herbicidal ratio of 40% or higher and lower than 70%)
Avena fatua
  I: Avena fatua, herbicidal effect grade: 5 (Herbicidal ratio of 90% or more (almost completely withered))
Wheat [1]
  e: wheat, effect grade on crop: 0 (Herbicidal ratio of 5% or lower (almost no effect))
Monochoria vaginalis [2]
  Herbicidal effect grade, C: Monochoria vaginalis: 0 (Herbicidal ratio of 5% or lower (almost no effect))
Lolium multiflorum Lam.; 320 g/ha
  K: Lolium multiflorum Lam., herbicidal effect grade: 5 (Herbicidal ratio of 90% or more (almost completely withered))
soybean
  d: soybean, effect grade on crop: 0 (Herbicidal ratio of 5% or lower (almost no effect))
[3]
  Herbicidal effect grade, A: Echinochloa oryzacola Vasing.: 0 (Herbicidal ratio of 5% or lower (almost no effect))
Wheat [4]
  e: wheat, effect on crop grade: 0 (Herbicidal ratio of 5% or lower (almost no effect))
[5]
  effect on crop b (directly sowed rice plant), grade 0-5: 4 (Herbicidal ratio of 70% or higher and lower than 90%)
beet
  f: beet, effect grade on crop: 0 (Herbicidal ratio of 5% or lower (almost no effect))
Monochoria vaginalis [6]
  Herbicidal effect grade, C: Monochoria vaginalis: 0 (Herbicidal ratio of 5% or lower (almost no effect))
Scirpus juncoides
  Herbicidal effect grade, B: Scirpus juncoides: 0 (Herbicidal ratio of 5% or lower (almost no effect))
Amaranthus retroflexus
  N: Amaranthus retroflexus, herbicidal effect grade: 0 (Herbicidal ratio of 5% or lower (almost no effect))
Veronica persica
  R: Veronica persica, herbicidal effect grade: 3 (Herbicidal ratio of 40% or higher and lower than 70%)

Source: US11000033B2, “Ketone or oxime compound, and herbicide” (NISSAN CHEMICAL CORPORATION, priority 2014, dated 2021)
